Measurements: paper PMC10272112 (Nature Communications, 2023)
Read-outs that look alike come from different tables or passages of the source.

What was measured:
Format in all cases: binding
[1] = target: HDAC1 (Homo sapiens, UniProt Q13547); assay: Chemoproteomic competition pulldown assay; set-up: endogenous in cells; host or cells: SW620, MV4-11, A549 lysates; conditions: for Kd: read-out: pKdapp (converted)
Method: (§1) To identify proteins directly bound by lipoic acid, we employed a chemoproteomic competition assay. Briefly, (R/S)-LA was immobilized on sepharose beads via an amidation reaction to form an affinity matrix (abbreviated as iL; Fig. 1a). This affinity matrix can be incubated with cell lysate to pull down potential LA or LM target proteins and identify these targets via bottom-up proteomics. In a competition assay, free LA or LM were incubated with lysate at different concentrations before pulling down and quantifying target proteins. […] (Fig. 1b, see “Methods” for details). […] The lysate buffer used in this assay contains 1 mM DTT to mimic the intracellular reductive milieu and to reduce lipoic acid and LM. […] Additional competition assays performed in lung adenocarcinoma cell A549 lysate also identified HDAC1, HDAC2, and HDAC6 as targets (Supplementary Fig. 1b). Amongst the three cell lines tested, HDACs were the only confidently identified targets across the 1500–3000 proteins quantified in these assays. […] We validated the results by analogous pulldown competition assays using two other affinity matrices prepared via the immobilization of either the HDAC inhibitor Quisinostat (iQ) and an analog of the class IIa HDAC inhibitor Bürli’s 31[14] (iC)[12]. We have previously shown that these affinity matrices specifically bind to the active sites of HDACs and have used them for HDACi selectivity profiling. Indeed, binding of (R/S)-LA and (R/S)-LM to HDAC1, HDAC2, HDAC3, HDAC6, and, to a lesser extent, HDAC8 was confirmed in these assays (Supplementary Fig. 1c, d). No binding to class IIa HDACs or the recently discovered common HDAC inhibitor off-target MBLAC2 was observed (Supplementary Fig. 1e)[12]. […] This observation might reflect electrostatic repulsion between the HDAC10 active site gate-keeper glutamic acid residues[15],[16] and the terminal carboxylic acid of LA.
(§2) To assess the degree of protein depletion from lysates by the affinity matrix, a second pulldown (PDPD) with fresh beads was performed using the unbound protein fraction from the vehicle control flow through. The beads were washed (1 × 1 mL of lysis buffer without inhibitors and only 0.4% Igepal, 2 × 2 mL of lysis buffer without inhibitors and only 0.2% Igepal), and captured proteins were denatured with 8 M urea buffer, alkylated with 55 mM chloroacetamide and digested with Trypsin according to standard procedures. The resulting peptides were desalted on a C18 filter plate (Sep-Pak® tC18 µElution Plate, Waters), vacuum dried, and stored at −20 °C until LC–MSMS measurement.
(§3) For the competition assays, relative binding was calculated based on the protein intensity ratio to the DMSO control for every single inhibitor concentration. EC50 values were derived from a four-parameter log-logistic regression with variable slope (constrain: bottom > 0). The obtained EC50 values were multiplied with a protein-dependent correction factor (cf), resulting in the apparent Kd value (Kd^app). The correction factor is determined by calculating the ratio of the protein intensity of two consecutive pulldowns of the vehicle control sample[13]. Targets of the inhibitors were annotated manually according to published procedures[12],[46],[47]. […] Additionally, the number of unique peptides and MSMS counts per condition were taken into account. Positive target binding across several independent experiments performed with different cell lysates further substantiated our confidence for a true positive drug-target binding event.

[2] = target: HDAC2 (Homo sapiens, UniProt Q92769); assay: Chemoproteomic competition pulldown assay; set-up: endogenous in cells; host or cells: SW620, MV4-11, A549 lysates
Sequence of HDAC2 (Q92769 whole entry): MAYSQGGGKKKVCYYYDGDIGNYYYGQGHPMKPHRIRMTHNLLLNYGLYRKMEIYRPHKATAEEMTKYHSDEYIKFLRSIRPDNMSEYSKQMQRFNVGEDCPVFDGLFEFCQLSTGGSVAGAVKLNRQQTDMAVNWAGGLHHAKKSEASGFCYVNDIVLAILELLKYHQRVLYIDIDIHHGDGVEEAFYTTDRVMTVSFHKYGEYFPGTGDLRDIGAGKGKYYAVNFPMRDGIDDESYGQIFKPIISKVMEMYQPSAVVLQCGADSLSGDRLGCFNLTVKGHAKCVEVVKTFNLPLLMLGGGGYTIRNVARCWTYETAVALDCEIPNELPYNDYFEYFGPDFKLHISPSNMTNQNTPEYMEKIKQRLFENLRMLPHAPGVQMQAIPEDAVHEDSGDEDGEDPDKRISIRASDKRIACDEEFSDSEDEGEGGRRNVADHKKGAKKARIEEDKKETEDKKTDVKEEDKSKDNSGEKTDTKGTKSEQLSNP
Method: as §1, §2, §3

[3] = test system: GSE1; assay: Chemoproteomic competition pulldown assay (co-competed CoREST partner)
Method: as §1, §2, §3

[4] = test system: KDM1A; assay: as above
Method: as §1, §2, §3

[5] = iL, MV4-11 lysate, log10 M -3.52288
[6] = iL, MV4-11 lysate, log10 M -4.52288
[7] = iL, MV4-11 lysate, log10 M -5.52288
[8] = iL, MV4-11 lysate, log10 M -6.52288
[9] = iQ, SW620 lysate, log10 M -3.52288
[10] = iQ, SW620 lysate, log10 M -4.52288
[11] = iQ, SW620 lysate, log10 M -5.52288
[12] = iQ, SW620 lysate, log10 M -6.52288

Sequence of HDAC1 (Q13547 whole entry): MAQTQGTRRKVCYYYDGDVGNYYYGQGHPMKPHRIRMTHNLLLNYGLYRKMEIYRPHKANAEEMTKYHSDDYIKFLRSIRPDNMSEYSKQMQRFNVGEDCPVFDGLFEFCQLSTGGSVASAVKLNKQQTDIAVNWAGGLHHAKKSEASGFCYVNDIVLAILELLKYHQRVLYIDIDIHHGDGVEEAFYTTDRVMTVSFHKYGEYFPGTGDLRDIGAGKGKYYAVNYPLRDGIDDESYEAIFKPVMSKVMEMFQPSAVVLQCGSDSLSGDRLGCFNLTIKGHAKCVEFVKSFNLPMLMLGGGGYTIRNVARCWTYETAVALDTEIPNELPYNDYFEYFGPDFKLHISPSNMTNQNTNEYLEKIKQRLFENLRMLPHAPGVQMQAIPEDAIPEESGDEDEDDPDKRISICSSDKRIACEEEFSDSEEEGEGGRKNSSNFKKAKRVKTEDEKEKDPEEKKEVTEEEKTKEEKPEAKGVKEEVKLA

**Q.** Which “relative binding vs DMSO” value [1, 5] does the source give for `NC(=O)CCCCC1CCSS1` (racemic) [(R/S)-LM, (R/S)-lipoamide] here?
**A.** 0.1265

**Q.** What about the “relative binding vs DMSO” value ([1]; iL, MV4-11 lysate, log10 M -4) of the same compound?
**A.** 0.2225

**Q.** And the “relative binding vs DMSO” value [1, 6]?
**A.** 0.3978

**Q.** And the “relative binding vs DMSO” value ([1]; iL, MV4-11 lysate, log10 M -5)?
**A.** 0.749

**Q.** And the “relative binding vs DMSO” value [1, 7]?
**A.** 0.6057

**Q.** And the “relative binding vs DMSO” value ([1]; iL, MV4-11 lysate, log10 M -6)?
**A.** 0.6823

**Q.** What about the “relative binding vs DMSO” value [1, 8] of the same compound?
**A.** 0.771

**Q.** What about the “relative binding vs DMSO” value ([1]; iL, MV4-11 lysate, log10 M -7) of the same compound?
**A.** 0.9295

**Q.** And the Kd ([1]; iL, MV411)?
**A.** 10 µM

**Q.** What about the Kd ([1]; iL, SW620) of the same compound?
**A.** 12.6 µM

**Q.** What about the Kd ([1]; iQ, SW620) of the same compound?
**A.** 20 µM

**Q.** What about the “relative binding vs DMSO” value [1, 9] of the same compound?
**A.** 0.1684

**Q.** What about the “relative binding vs DMSO” value ([1]; iQ, SW620 lysate, log10 M -4) of the same compound?
**A.** 0.2856

**Q.** What about the “relative binding vs DMSO” value [1, 10] of the same compound?
**A.** 0.6671

**Q.** What about the “relative binding vs DMSO” value ([1]; iQ, SW620 lysate, log10 M -5) of the same compound?
**A.** 1.011

**Q.** What about the “relative binding vs DMSO” value [1, 11] of the same compound?
**A.** 0.8661

**Q.** What about the “relative binding vs DMSO” value ([1]; iQ, SW620 lysate, log10 M -6) of the same compound?
**A.** 1.096

**Q.** What about the “relative binding vs DMSO” value [1, 12] of the same compound?
**A.** 1.037

**Q.** What about the “relative binding vs DMSO” value ([1]; iQ, SW620 lysate, log10 M -7) of the same compound?
**A.** 1.154

**Q.** What about the “relative binding vs DMSO” value [2, 5] of the same compound?
**A.** 0.0982

**Q.** What about the “relative binding vs DMSO” value ([2]; iL, MV4-11 lysate, log10 M -4) of the same compound?
**A.** 0.1933

**Q.** What about the “relative binding vs DMSO” value [2, 6] of the same compound?
**A.** 0.3304

**Q.** And the “relative binding vs DMSO” value ([2]; iL, MV4-11 lysate, log10 M -5)?
**A.** 0.6612

**Q.** And the “relative binding vs DMSO” value [2, 7]?
**A.** 0.6399

**Q.** And the “relative binding vs DMSO” value ([2]; iL, MV4-11 lysate, log10 M -6)?
**A.** 0.7735

**Q.** What about the “relative binding vs DMSO” value [2, 8] of the same compound?
**A.** 0.8518

**Q.** What about the “relative binding vs DMSO” value ([2]; iL, MV4-11 lysate, log10 M -7) of the same compound?
**A.** 0.9297

**Q.** And the Kd ([2]; iL, MV4-11 lysate, read-out: Kd app)?
**A.** 14 µM

**Q.** And the Kd ([2]; iL, MV411, read-out: pKdapp (converted))?
**A.** 10 µM

**Q.** What about the Kd ([2]; iL, SW620, read-out: pKdapp (converted)) of the same compound?
**A.** 20 µM

**Q.** And the Kd ([2]; iQ, SW620, read-out: pKdapp (converted))?
**A.** 20 µM

**Q.** What about the “relative binding vs DMSO” value [2, 9] of the same compound?
**A.** 0.1341

**Q.** What about the “relative binding vs DMSO” value ([2]; iQ, SW620 lysate, log10 M -4) of the same compound?
**A.** 0.2239

**Q.** And the “relative binding vs DMSO” value [2, 10]?
**A.** 0.5192

**Q.** And the “relative binding vs DMSO” value ([2]; iQ, SW620 lysate, log10 M -5)?
**A.** 0.7829

**Q.** What about the “relative binding vs DMSO” value [2, 11] of the same compound?
**A.** 0.822

**Q.** And the “relative binding vs DMSO” value ([2]; iQ, SW620 lysate, log10 M -6)?
**A.** 0.953

**Q.** And the “relative binding vs DMSO” value [2, 12]?
**A.** 0.8561

**Q.** What about the “relative binding vs DMSO” value ([2]; iQ, SW620 lysate, log10 M -7) of the same compound?
**A.** 0.9474

**Q.** What about the “relative binding vs DMSO” value [3, 5] of the same compound?
**A.** 0.03208

**Q.** And the “relative binding vs DMSO” value ([3]; iL, MV4-11 lysate, log10 M -4)?
**A.** 0.05802

**Q.** And the “relative binding vs DMSO” value [3, 6]?
**A.** 0.1417

**Q.** And the “relative binding vs DMSO” value ([3]; iL, MV4-11 lysate, log10 M -5)?
**A.** 0.4933

**Q.** And the “relative binding vs DMSO” value [3, 7]?
**A.** 0.6793

**Q.** And the “relative binding vs DMSO” value ([3]; iL, MV4-11 lysate, log10 M -6)?
**A.** 0.8351

**Q.** What about the “relative binding vs DMSO” value [3, 8] of the same compound?
**A.** 0.9265

**Q.** And the “relative binding vs DMSO” value ([3]; iL, MV4-11 lysate, log10 M -7)?
**A.** 0.8883

**Q.** What about the “relative binding vs DMSO” value [3, 9] of the same compound?
**A.** 0.1386

**Q.** What about the “relative binding vs DMSO” value ([3]; iQ, SW620 lysate, log10 M -4) of the same compound?
**A.** 0.1278

**Q.** And the “relative binding vs DMSO” value [3, 10]?
**A.** 0.3991

**Q.** And the “relative binding vs DMSO” value ([3]; iQ, SW620 lysate, log10 M -5)?
**A.** 0.559

**Q.** What about the “relative binding vs DMSO” value [3, 11] of the same compound?
**A.** 0.8469

**Q.** What about the “relative binding vs DMSO” value ([3]; iQ, SW620 lysate, log10 M -6) of the same compound?
**A.** 1.003

**Q.** And the “relative binding vs DMSO” value [3, 12]?
**A.** 0.8631

**Q.** And the “relative binding vs DMSO” value ([3]; iQ, SW620 lysate, log10 M -7)?
**A.** 0.9076

**Q.** What about the “relative binding vs DMSO” value [4, 5] of the same compound?
**A.** 0.06889

**Q.** And the “relative binding vs DMSO” value ([4]; iL, MV4-11 lysate, log10 M -4)?
**A.** 0.07597

**Q.** What about the “relative binding vs DMSO” value [4, 6] of the same compound?
**A.** 0.1867

**Q.** And the “relative binding vs DMSO” value ([4]; iL, MV4-11 lysate, log10 M -5)?
**A.** 0.4972

**Q.** And the “relative binding vs DMSO” value [4, 7]?
**A.** 0.6394

**Q.** And the “relative binding vs DMSO” value ([4]; iL, MV4-11 lysate, log10 M -6)?
**A.** 0.7472

**Q.** What about the “relative binding vs DMSO” value [4, 8] of the same compound?
**A.** 0.8335

**Q.** What about the “relative binding vs DMSO” value ([4]; iL, MV4-11 lysate, log10 M -7) of the same compound?
**A.** 0.9817

**Q.** And the “relative binding vs DMSO” value [4, 9]?
**A.** 0.09916

**Q.** And the “relative binding vs DMSO” value ([4]; iQ, SW620 lysate, log10 M -4)?
**A.** 0.186

**Q.** What about the “relative binding vs DMSO” value [4, 10] of the same compound?
**A.** 0.3209

**Q.** What about the “relative binding vs DMSO” value ([4]; iQ, SW620 lysate, log10 M -5) of the same compound?
**A.** 0.6955

**Q.** And the “relative binding vs DMSO” value [4, 11]?
**A.** 0.8479

**Q.** What about the “relative binding vs DMSO” value ([4]; iQ, SW620 lysate, log10 M -6) of the same compound?
**A.** 0.9866

**Q.** And the “relative binding vs DMSO” value [4, 12]?
**A.** 0.7392

**Q.** What about the “relative binding vs DMSO” value ([4]; iQ, SW620 lysate, log10 M -7) of the same compound?
**A.** 0.6643
